Assay results taken from PubChem BioAssay (NCI).
“And” between values parts separate entries of the source, which are not always exact repeats. Identical values can stand only once.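 Tested at 5 concentrations; 48 h exposure; 96-well plates; endpoints linearly interpolated, else capped at highest concentration. At the GI50, growth is halved. The concentration for full growth arrest is given as TGI.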

What was measured:
Test in all cases: growth of human tumour cells (NCI), 48 h
UACC-62 melanoma = system: UACC-62 melanoma
HCT-116 colon = system: HCT-116 colon
CCRF-CEM leukemia = system: CCRF-CEM leukemia
COLO 205 colon = system: COLO 205 colon
A498 renal = system: A498 renal
HT29 colon = system: HT29 colon
NCI/ADR-RES ovarian = system: NCI/ADR-RES ovarian
HOP-92 NSCLC = system: HOP-92 NSCLC
SR leukemia = system: SR leukemia
TK-10 renal = system: TK-10 renal

| SMILES | GI50 (UACC-62 melanoma) | TGI (UACC-62 melanoma) [µM] | GI50 (HCT-116 colon) | TGI (HCT-116 colon) | GI50 (CCRF-CEM leukemia) | TGI (CCRF-CEM leukemia) | GI50 (COLO 205 colon) | TGI (COLO 205 colon) | GI50 (A498 renal) | TGI (A498 renal) | GI50 (HT29 colon) | TGI (HT29 colon) | GI50 (NCI/ADR-RES ovarian) [µM] | TGI (NCI/ADR-RES ovarian) | GI50 (HOP-92 NSCLC) | TGI (HOP-92 NSCLC) | GI50 (SR leukemia) | TGI (SR leukemia) | GI50 (TK-10 renal) | TGI (TK-10 renal) |
| --- | --- | --- | --- | --- | --- | --- | --- | --- | --- | --- | --- | --- | --- | --- | --- | --- | --- | --- | --- | --- |
| Cc1ccc(-c2n[nH]c(=O)c3noc(-c4ccc(C)cc4)c23)cc1 | 0.718 µM | 56.5 | 0.557 µM | 75.5 µM | 2.45 µM | > 100 µM | 0.752 µM | 5.05 µM | 1.27 µM | 6.71 µM | 0.4 µM | 15.8 µM | 0.623 | > 100 µM | 0.194 µM | 0.962 µM | 0.441 µM | > 100 µM | 2.35 µM | 14.2 µM |
| CN(C(=O)CNC(=O)/C=C/c1cccc(Cl)c1)C1CCS(=O)(=O)CC1 | 0.986 µM | > 100 | 1.52 µM | > 100 µM | > 100 µM | > 100 µM | 1.1 µM | > 100 µM | 0.421 µM | > 100 µM | 0.889 µM | > 100 µM | > 100 | > 100 µM | > 100 µM | > 100 µM | > 100 µM | > 100 µM | 2.27 µM | > 100 µM |
| Cn1cc(-c2nc(N[C@@H]3CCCC[C@@H]3N)c(F)c3c2C(=O)NC3)cn1 | 10.4 µM and 13.1 µM | > 100 | 3.66 µM and 4.67 µM | 47.7 µM and > 83.3 µM | 5.09 µM and 5.26 µM | > 100 µM | 1.41 µM and 1.63 µM | 3.99 µM and 4.13 µM | 1.72 µM and 2.45 µM | 8.43 µM and 11.3 µM | 4.33 µM and 5.99 µM | 81.5 µM and > 94.4 µM | > 100 | > 100 µM | 3.62 µM and 4.47 µM | 23.9 µM and 29.1 µM | 2.26 µM and 2.92 µM | 31.9 µM and 36 µM | 4.5 µM and 6.16 µM | 25.3 µM and 40.6 µM |
| COc1cccc(NC2=C(Cl)C(=O)N(Cc3ccc(Cl)cc3)C2=O)c1 | 1.97 µM | 18.3 | 1.59 µM | 13.5 µM |  | > 68.9 µM | 4.96 µM | 39.8 µM | 11.8 µM | 27.3 µM | 2.72 µM | > 100 µM | 1.22 | 5.39 µM | 13.1 µM | 35.4 µM | 0.261 µM |  | 3.45 µM | 27.3 µM |
| O=C(/C=C/c1cccc2ccccc12)Nc1ncc(Cc2ccccc2)s1 | 0.437 µM | > 100 | 0.46 µM | 11.6 µM | 0.852 µM | > 100 µM | 1.48 µM | > 100 µM | 0.189 µM | 0.72 µM | 1 µM | > 47 µM | 0.713 | > 69.3 µM | 0.371 µM | 4.73 µM | 0.866 µM | > 100 µM | 1.69 µM | 4.87 µM |
| CC(/C=N/N=C(N)N)=N\N=C(N)N | > 55.3 µM | 236 | 52.1 µM | 1370 µM | 18.8 µM | > 78.5 µM and 1300 µM | 4.26 µM | 33.1 µM and 21.5 µM | > 77.9 µM | 1890 µM | 18.6 µM and 17.1 µM | > 58 µM and 1620 µM | 20.8 | 61.1 µM and 126 µM | 54.4 µM | 62.5 µM | 1.95 µM | 333 µM | 32.3 µM | 813 µM |
| Oc1ccc(Cl)cc1/C=N\NC(=S)N/N=C/c1cc(Cl)ccc1O | 1.74 µM | 7.57 | 1.42 µM | 18.5 µM | 0.468 µM | 12.1 µM | 3.34 µM | 41.6 µM | 2.36 µM | 11.5 µM | 5.13 µM | 54.4 µM | 2.78 | 32.8 µM | 1.92 µM | 14.7 µM | 1.22 µM | 40.9 µM | 2.68 µM | 34.5 µM |
| C/C(=N/O)c1ccc(Nc2cc(-n3ccnc3)c3ccccc3n2)cc1 | 27.8 µM | > 100 | 14.6 µM | 38.9 µM | 0.126 µM | 1.99 µM | 11.8 µM | > 100 µM | 27.6 µM | 94 µM | 8.34 µM | > 100 µM | 42.9 | > 100 µM | 38.3 µM | > 100 µM | 3.78 µM | > 100 µM | 16.4 µM | > 100 µM |
| Nc1c(C(=O)Nc2cccc3ccccc23)sc2nc3c(cc12)C(=O)CCC3 | 0.166 µM | > 75.8 | 0.327 µM | > 100 µM | 0.29 µM | > 100 µM | 0.15 µM | 0.418 µM | 0.0463 µM | 1.55 µM | 0.265 µM |  | 0.225 |  | 2.92 µM | > 100 µM | 0.38 µM | > 100 µM | 12.9 µM | > 100 µM |
| Cc1ccc(S(=O)(=O)NC(CO)C(=O)O)cc1 (stereo unspecified) |  | > 100 |  | > 100 µM |  | > 100 µM |  | > 100 µM |  | > 100 µM |  | > 100 µM |  | > 100 µM |  | > 100 µM |  | > 100 µM |  | > 100 µM |
